Each structure is given as a SMILES string.

Assay [1] can be described thus: Cytotoxicity against human A375P cells at 100 uM after 24 hrs by MTT assay. It counts as functional, cell-based.
Assay [2] is described as follows: Cytotoxicity against human A375P cells after 24 hrs by MTT assay. It counts as functional, cell-based. A general note: Tetrazolium assays rely on reduction of a dye to a coloured formazan, in cell work by metabolically active cells.
For assay [3], the target named is Serine/threonine-protein kinase B-raf (Homo sapiens, UniProt P15056, V600E). Briefly: Inhibition of b-Raf V600E mutant.
Assay [4] addresses RAF proto-oncogene serine/threonine-protein kinase (Homo sapiens, UniProt P04049). Put plainly: Inhibition of c-Raf.
Assay [5] concerns HS27. Put plainly: Cytotoxicity against human HS27 cells after 24 hrs by MTT assay. It counts as cell-based. Conditions: HS27, 24 h; call rule not given here.

RAF proto-oncogene serine/threonine-protein kinase, sequence (P04049 whole entry): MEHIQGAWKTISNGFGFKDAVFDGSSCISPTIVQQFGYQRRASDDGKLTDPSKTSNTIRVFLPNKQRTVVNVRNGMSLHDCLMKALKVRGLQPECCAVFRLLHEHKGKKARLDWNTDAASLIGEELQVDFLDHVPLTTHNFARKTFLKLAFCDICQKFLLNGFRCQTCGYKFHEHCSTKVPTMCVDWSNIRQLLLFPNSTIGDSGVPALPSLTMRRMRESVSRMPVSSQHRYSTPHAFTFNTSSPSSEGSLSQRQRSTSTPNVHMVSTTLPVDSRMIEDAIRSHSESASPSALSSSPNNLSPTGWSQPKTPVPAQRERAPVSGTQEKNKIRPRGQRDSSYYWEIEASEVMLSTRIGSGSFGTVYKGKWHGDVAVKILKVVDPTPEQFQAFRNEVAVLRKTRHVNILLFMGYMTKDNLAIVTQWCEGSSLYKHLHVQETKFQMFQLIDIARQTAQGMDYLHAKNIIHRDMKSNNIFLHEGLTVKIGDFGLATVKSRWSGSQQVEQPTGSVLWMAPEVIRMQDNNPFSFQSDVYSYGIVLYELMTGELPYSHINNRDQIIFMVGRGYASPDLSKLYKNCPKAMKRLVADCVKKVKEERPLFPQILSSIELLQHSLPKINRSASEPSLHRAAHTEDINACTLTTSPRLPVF
Serine/threonine-protein kinase B-raf, sequence (P15056 2-766 V600E limits assumed): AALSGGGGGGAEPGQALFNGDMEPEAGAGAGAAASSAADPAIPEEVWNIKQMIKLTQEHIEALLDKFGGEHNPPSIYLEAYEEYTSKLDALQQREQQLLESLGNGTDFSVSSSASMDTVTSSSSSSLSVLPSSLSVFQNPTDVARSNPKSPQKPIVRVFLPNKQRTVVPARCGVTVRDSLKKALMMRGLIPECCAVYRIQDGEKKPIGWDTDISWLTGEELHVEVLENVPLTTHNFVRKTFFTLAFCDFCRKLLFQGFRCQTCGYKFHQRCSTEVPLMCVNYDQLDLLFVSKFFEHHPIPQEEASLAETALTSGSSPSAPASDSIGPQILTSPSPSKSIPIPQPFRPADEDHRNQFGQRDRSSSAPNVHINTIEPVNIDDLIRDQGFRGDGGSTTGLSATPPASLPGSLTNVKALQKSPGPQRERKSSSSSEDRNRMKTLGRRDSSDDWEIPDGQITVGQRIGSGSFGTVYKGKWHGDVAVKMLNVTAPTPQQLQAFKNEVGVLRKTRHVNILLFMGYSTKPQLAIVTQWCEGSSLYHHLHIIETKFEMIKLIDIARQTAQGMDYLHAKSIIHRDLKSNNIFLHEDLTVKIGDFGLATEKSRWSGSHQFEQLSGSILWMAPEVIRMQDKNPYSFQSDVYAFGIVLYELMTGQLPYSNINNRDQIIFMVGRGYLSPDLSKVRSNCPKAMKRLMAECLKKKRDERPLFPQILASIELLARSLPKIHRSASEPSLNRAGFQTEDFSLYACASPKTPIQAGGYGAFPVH

As for `CNc1ncnc2c(CNc3cc(NC(=O)c4ccc(N)c(C(F)(F)F)c4)ccc3C)cccc12`, the IC50 result in assay [1] was “Not Active”.

With `CNc1ncnc2c(CNc3cc(NC(=O)c4cc(=O)c5ccccc5o4)ccc3C)cccc12`, the half-inhibitory concentration (IC50) in assay [2] came to 0.006 µM; in assay [3] it was 19.5 µM; in assay [4] it was 0.765 µM; in assay [5], 0.23 µM.

Consider `CNc1ncnc2c(CNc3cc(NC(=O)c4cccc(C(F)(F)F)c4)ccc3C)cccc12`, for which the IC50 in assay [2] turned out to be 0.433 µM. Still for that read-out and setting: the figure for `CNc1ncnc2c(CNc3cc(NC(=O)c4ccnnc4)ccc3C)cccc12` is 61.7 µM; for `CNc1ncnc2c(CNc3cc(NC(=O)c4cscn4)ccc3C)cccc12` it is 1.9 µM. Regarding `CNc1ncnc2c(CNc3cc(NC(=O)c4ccc(-c5ccc(OC)cc5)o4)ccc3C)cccc12`, the 50% inhibitory concentration (IC50) entry in assay [1] is given as “Not Active”. The same measure, in the same setting: the same measure for `CNc1ncnc2c(CNc3cc(NC(=O)c4ccc(Cl)c(-n5cnc(C)c5)c4)ccc3C)cccc12`: “Not Active”. As to `CNc1ncnc2c(CNc3cc(NC(=O)c4ccc(Br)s4)ccc3C)cccc12`, the IC50 in assay [2] was found to be 10.5 µM. This lies in the double-digit micromolar range. Still for that read-out and setting: the same measure for `CNc1ncnc2c(CNc3cc(NC(=O)c4cc(C)on4)ccc3C)cccc12`: 1.2 µM. For `CNc1ncnc2c(CNc3cc(NC(=O)c4cnccn4)ccc3C)cccc12`, the IC50 entry in assay [1] was “Not Active”. As to `CNc1ncnc2c(CNc3cc(NC(=O)c4ccncc4Cl)ccc3C)cccc12`, in assay [1], the IC50 entry was “Not Active”. Compound `CNc1ncnc2c(CNc3cc(NC(=O)c4ccc(Cl)c(C(F)(F)F)c4)ccc3C)cccc12` registered an IC50 in assay [2] of 9.7 µM. Consider `CNc1ncnc2c(CNc3cc(NC(=O)c4cc(C)oc4C)ccc3C)cccc12`, for which the concentration for half-maximal inhibition (IC50) result in assay [1] is on record as “Not Active”. The same measure, in the same setting: the same measure for `CNc1ncnc2c(CNc3cc(NC(=O)c4cc5ccccc5s4)ccc3C)cccc12`: “Not Active”. With `CNc1ncnc2c(CNc3cc(NC(=O)c4ccc(-c5cc(C(F)(F)F)ccc5Cl)o4)ccc3C)cccc12`, the IC50 in assay [2] was 14.9 µM.

Regarding `CNc1ncnc2c(CNc3cc(NC(=O)c4ccc5c(c4)OCCO5)ccc3C)cccc12`, the IC50 in assay [2] turned out to be 0.137 µM; in assay [5], 1.2 µM. Compound `CNc1ncnc2c(CNc3cc(NC(=O)c4cc(C(F)(F)F)cc(C(F)(F)F)c4)ccc3C)cccc12` showed a concentration for half-maximal inhibition (IC50) in assay [2] of 0.769 µM. In other words, the sub-micromolar range. The same measure, in the same setting: the figure for `CNC(=O)c1cc(Oc2ccc(NC(=O)Nc3ccc(Cl)c(C(F)(F)F)c3)cc2)ccn1` [SORAFENIB] is 5.58 µM. Consider `CNc1ncnc2c(CNc3cc(NC(=O)c4ccc(OC)c5ccc(OC)cc45)ccc3C)cccc12`, for which the IC50 result in assay [1] is on record as “Not Active”.

One may read the IC50 as the concentration at which inhibition is half-maximal. Lower therefore signals greater potency in that assay.
